# Source: ChEMBL document CHEMBL3132755, “Phage display libraries of differently sized bicyclic peptides” (Medchemcomm, 2013)
# Target: Urokinase-type plasminogen activator (Homo sapiens, UniProt P00749)
# Assay: Inhibition of human uPA using Z-Gly-Gly-Arg-AMC as substrate after 30 mins by fluorescence assay
row,Structure (SMILES),Ki [µM]
1,CC[C@H](C)[C@@H]1NC(=O)[C@H](CO)NC(=O)[C@H](CO)NC(=O)[C@H](CCCNC(=N)N)NC(=O)CNC(=O)[C@H](CCCNC(=N)N)NC(=O)[C@@H]2CSCc3cc(cc(c3)CSC[C@@H](C(=O)NCC(=O)O)NC1=O)CSC[C@H](NC(=O)[C@H](C)N)C(=O)N[C@@H]([C@@H](C)O)C(=O)N[C@@H](CCC(=O)O)C(=O)N[C@@H](Cc1ccccc1)C(=O)N[C@@H](CCC(N)=O)C(=O)N[C@@H]([C@@H](C)O)C(=O)N[C@@H](CC(=O)O)C(=O)N2,0.9
2,C[C@H](N)C(=O)N[C@H]1CSCc2cc3cc(c2)CSC[C@@H](C(=O)NCC(=O)O)NC(=O)[C@@H]2CCCN2C(=O)CNC(=O)CNC(=O)[C@H](CCCNC(=N)N)NC(=O)CNC(=O)[C@H](CCCNC(=N)N)NC(=O)[C@H](CSC3)NC(=O)[C@H](CC(=O)O)NC(=O)[C@H]([C@@H](C)O)NC(=O)[C@H](C)NC(=O)[C@H](C)NC(=O)[C@H](Cc2cnc[nH]2)NC(=O)[C@H](CC(N)=O)NC1=O,0.71
3,CC(C)C[C@@H]1NC(=O)[C@H]([C@@H](C)O)NC(=O)[C@H](CCCNC(=N)N)NC(=O)[C@H](C)NC(=O)[C@H]([C@@H](C)O)NC(=O)[C@@H]2CSCc3cc(cc(c3)CSC[C@@H](C(=O)NCC(=O)O)NC1=O)CSC[C@H](NC(=O)[C@H](C)N)C(=O)N[C@@H](CCCCN)C(=O)N[C@@H](CCC(N)=O)C(=O)N[C@@H](CO)C(=O)N[C@@H](C(C)C)C(=O)N2,8.67
4,C[C@H](N)C(=O)N[C@H]1CSCc2cc3cc(c2)CSC[C@@H](C(=O)NCC(=O)O)NC(=O)[C@@H]2CCCN2C(=O)[C@H](Cc2ccccc2)NC(=O)[C@H](CCCNC(=N)N)NC(=O)[C@H](C)NC(=O)[C@H]([C@@H](C)O)NC(=O)[C@H](CSC3)NC(=O)[C@H](CC(=O)O)NC(=O)[C@H](CO)NC(=O)[C@H](Cc2cnc[nH]2)NC(=O)[C@H](CCCCN)NC1=O,26.8
5,CSCC[C@@H]1NC(=O)[C@H]([C@@H](C)O)NC(=O)[C@H](Cc2ccccc2)NC(=O)[C@H](CCCCN)NC(=O)[C@@H]2CSCc3cc(cc(c3)CSC[C@@H](C(=O)NCC(=O)O)NC1=O)CSC[C@H](NC(=O)[C@H](C)N)C(=O)N[C@@H](CCCNC(=N)N)C(=O)NCC(=O)NCC(=O)N2,23.5
6,CC(C)C[C@@H]1NC(=O)[C@@H](NC(=O)[C@H](C)N)CSCc2cc3cc(c2)CSC[C@@H](C(=O)NCC(=O)O)NC(=O)[C@H](CO)NC(=O)[C@@H]2CCCN2C(=O)[C@H](CCCNC(=N)N)NC(=O)[C@H](CCCNC(=N)N)NC(=O)[C@H](CC(N)=O)NC(=O)[C@H](CCC(=O)O)NC(=O)[C@H](CSC3)NC(=O)CNC(=O)[C@H](CCCNC(=N)N)NC(=O)[C@H](CCC(=O)O)NC(=O)CNC(=O)[C@H](CCC(N)=O)NC1=O,4.77
7,CC(C)C[C@@H]1NC(=O)[C@H](C(C)C)NC(=O)[C@H](CCC(N)=O)NC(=O)[C@H]([C@@H](C)O)NC(=O)[C@H](C)NC(=O)[C@@H]2CCCN2C(=O)[C@@H]2CSCc3cc(cc(c3)CSC[C@@H](C(=O)NCC(=O)O)NC1=O)CSC[C@H](NC(=O)[C@H](C)N)C(=O)N[C@@H]([C@@H](C)O)C(=O)N[C@@H](C)C(=O)N[C@@H](CCCNC(=N)N)C(=O)N[C@@H]([C@@H](C)O)C(=O)N2,48.7
8,CC(C)C[C@@H]1NC(=O)[C@H](CO)NC(=O)[C@H](Cc2ccccc2)NC(=O)[C@H](CCCCN)NC(=O)[C@H](Cc2c[nH]c3ccccc23)NC(=O)[C@H](CC(N)=O)NC(=O)[C@@H](NC(=O)[C@H](C)N)CSCc2cc3cc(c2)CSC[C@H](NC1=O)C(=O)N[C@@H](CCC(=O)O)C(=O)N[C@@H]([C@@H](C)O)C(=O)N[C@@H](CCC(N)=O)C(=O)N[C@@H](CCCNC(=N)N)C(=O)N[C@@H](CC(N)=O)C(=O)N[C@@H](CCC(N)=O)C(=O)N[C@H](C(=O)NCC(=O)O)CSC3,1.48
9,CSCC[C@@H]1NC(=O)[C@H](CCC(N)=O)NC(=O)[C@H](CO)NC(=O)[C@H](CO)NC(=O)[C@@H]2CCCN2C(=O)[C@H](CO)NC(=O)[C@@H]2CSCc3cc(cc(c3)CSC[C@@H](C(=O)NCC(=O)O)NC1=O)CSC[C@H](NC(=O)[C@H](C)N)C(=O)N[C@@H](CC(N)=O)C(=O)N[C@@H](CO)C(=O)N[C@@H](CCCNC(=N)N)C(=O)N[C@@H](Cc1ccccc1)C(=O)N[C@@H](C)C(=O)N[C@@H](CC(C)C)C(=O)N2,14.8
